Laboratory results reported in article PMC3791449, “Mechanism of amyloid β−protein dimerization determined using single−molecule AFM force spectroscopy” (Scientific Reports, 2013).

Tests used:
[1] = test system: misfolded Aβ dimers; assay: Single-molecule AFM force spectroscopy: rupture force of Aβ dimers; format: binding, human
Procedure: (§1) The cysteinyl−peptides were covalently immobilized on the tip and the surface via flexible tethers terminated with maleimide groups. […] Peptide aggregation was minimized by using a very low peptide concentration (20 nM) during the coupling reaction with the functionalized mica surface and the tips. Probing was performed by multiple approach−retraction cycles over various spots of the mica surface.
Figures 1−b1 and 1−b2 show typical force curves for non−specific and specific interactions, respectively. Specific rupture events were characterized by the appearance of the event indicated with an arrow in Fig. 1−b2. The rupture peak appears at the distance defined by the extension of the flexible linkers (polyethylene glycol, PEG and maleimide silatrane, MAS) and the segments of the peptides not involved in dimer formation (see Supplementary Methods for specifics). The force−distance curves, as shown in Fig. 1−b2, were analyzed with worm−like chain (WLC) fitting to extract parameters including the rupture force and the contour length. […] The measurements for the [VPV]Aβ40 mutant performed at similar conditions (ionic strength, loading rate, etc.) are shown in Fig. 1d. […] The rupture forces increase with increasing apparent loading rates (Supplementary Fig. S1).
(§2) All cysteinyl−Aβ peptides were synthesized using 9−fluorenylmethoxycarbonyl (FMOC) chemistry and purified by reverse phase high performance liquid chromatography (RP−HPLC). The identity and purity (usually > 97%) of the peptides were confirmed by amino acid analysis followed by mass spectrometry and RP−HPLC. Functionalization of AFM tips and mica substrates were prepared according to previously published procedures. Briefly, 20 nM Aβ monomers were immobilized on mica functionalized with aminopropyl silatrane (APS) via PEG 3400 tethers and on AFM tips through maleimide silatrane (MAS). For DFS study, the tip retraction speeds ranged from 100 nm/s to 4000 nm/s. The dwell time was set at 0.3 s when retraction speed reached 1000 nm/s and above. Force curves with rupture event were subject to WLC analysis, as shown below. [drawing 1] Rupture force distributions were fitted with a probability density function: [drawing 2] Dynamic force spectra were fitted with Bell−Evans model[21]: [drawing 3] The energy profiles were reconstructed according to previous papers, using the equation below. [drawing 4] Positions of interacting segments of Aβ monomers within dimers were estimated by subtracting from the measured contour lengths the lengths of all linkers and the distance between N−termini of monomers (see Fig. 1a). The contour length of PEG was estimated with the following equation[28]: [drawing 5] Where Lc(F) is the contour length, Ns is the average number of monomers, Lplanar is the length of monomers with planar conformation, Lhelical is the length of monomers with helical conformation, ΔG(F) is the free energy difference at zero appling force. The Ns is 77 ± 10 for 3400 Da PEG. The Lplanar and Lhelical are 3.58 Å and 2.8 Å, respectively. The ΔG(F) is fixed at 3 kBT. The contour length of PEG was thus estimated to be 22.0 ± 0.9 nm. All error bars represent SEM. Detailed methods can be found in Supplementary Information.
A 50 mM 1−(3−aminopropyl) silatrane (APS) stock solution was prepared by dissolving the APS powder in deionized (DI) water. The 1.67 mM stock solution of maleimide−polyethylene glycol−succinimidyl valerate (MAL−PEG−SVA; 3.4 kDa Laysan Bio Inc, Arab, AL) was prepared in DMSO (Sigma−Aldrich Inc.) and stored at −20°C. The 10 mM Tris (2−carboxyethyl) phosphine (TCEP) hydrochloride (Hampton Research Inc.) and the 2.94 mM solution of maleimide silatrane (MAS) were prepared in DI water and stored at −20°C. A 10 mM stock solution of β−mercaptoethanol was prepared in 10 mM sodium phosphate, pH 7.4 (“phosphate buffer”) and kept at 4°C. Unless otherwise specified, other reagents used in the experiments were of analytical grade from Sigma−Aldrich. […]

[2] = test system: misfolded Aβ dimers; assay: Dynamic force spectroscopy (DFS) of misfolded Aβ dimers; format: binding, human; settings: for xβ (potential barrier location) / koff (dissociation rate without applied force): Bell-Evans fit; for koff (dissociation rate without applied force): extrapolated to zero force; for barrier height (ΔG) of dimer dissociation: from mean koff of independent experiments, equation (4); for dimer lifetime (1/koff): zero applied force
Procedure: as §1
In the DFS approach, multiple force measurements were performed at different pulling rates and the data were grouped into several clusters according to the selected loading rates. […] After extrapolating the data to the zero pulling rate, the intercept and the slope of the linear plots (DFS spectrum) produced characteristics of the complexes, including their stability (off−rate constant koff) and the energy barrier position (xβ)[20][21].
The mean values were calculated from this dataset (Supplementary Table S1) and equation (4) (see Methods) was used to extract the barrier height (ΔG), along with xβ values, to generate the energy profile for the Aβ40 dissociation process.
as §2, with “The identity and purity (usually > 97%) of the peptides were confirmed by amino acid analysis followed by mass spectrometry and RP−HPLC.” left out, “The contour length of PEG was thus estimated to be 22.0 ± 0.9 nm.” left out
A 50 mM 1−(3−aminopropyl) silatrane (APS) stock solution was prepared by dissolving the APS powder in deionized (DI) water. The 1.67 mM stock solution of maleimide−polyethylene glycol−succinimidyl valerate (MAL−PEG−SVA; 3.4 kDa Laysan Bio Inc, Arab, AL) was prepared in DMSO (Sigma−Aldrich Inc.) and stored at −20°C. The 10 mM Tris (2−carboxyethyl) phosphine (TCEP) hydrochloride (Hampton Research Inc.) and the 2.94 mM solution of maleimide silatrane (MAS) were prepared in DI water and stored at −20°C. A 10 mM stock solution of β−mercaptoethanol was prepared in 10 mM sodium phosphate, pH 7.4 (“phosphate buffer”) and kept at 4°C. Unless otherwise specified, other reagents used in the experiments were of analytical grade from Sigma−Aldrich.

[3] = Supplementary Figs. S3b-S5b, similar analysis, loading rate not given
[4] = experiment #1, retraction 100-4000 nm/s, approach 400 nm/s, trigger force 100 pN, dwell 0.3 s at ≥1000 nm/s, N-terminal Cys tethered, 20 nM coupling
[5] = experiment #2, retraction 100-4000 nm/s
[6] = experiment #3, retraction 100-4000 nm/s
[7] = mean ± SEM of three experiments, retraction 100-4000 nm/s
[8] = experiment #1, retraction 100-4000 nm/s
[9] = mean ± SEM of three experiments
[10] = mean ± SEM of three experiments, DFS
[11] = loading rates of 5000−7000 pN/s, ± SEM, total data 170 (Aβ40), 280 ([VPV]Aβ40)

Substance | most probable rupture force [1, 3] [pN] | xβ (potential barrier location) [2, 4] [nm] | xβ (potential barrier location) [2, 5] [nm] | xβ (potential barrier location) [2, 6] [nm] | xβ (potential barrier location) [2, 7] [nm] | lifetime increase of dimer vs WT counterpart ([2]; DFS, [VPV] mutant vs wild type) | koff (dissociation rate without applied force) [2, 8] [s⁻¹] | koff (dissociation rate without applied force) ([2]; experiment #2) [s⁻¹] | koff (dissociation rate without applied force) ([2]; experiment #3) [s⁻¹] | barrier height (ΔG) of dimer dissociation [2] [kBT] | koff (dissociation rate without applied force) [2, 9] [s⁻¹] | dimer lifetime (1/koff) [2, 10] [s] | most probable rupture force, increase vs Αβ40 dimers ([1]; [VPV]Αβ40 vs Αβ40 (79.3 vs 63.4 pN), loading rates of 5000−7000 pN/s) [%] | most probable rupture force ([1]; loading rate 6068 pN/s, probability density function fit) [pN] | most probable rupture force [1, 11] [pN] | most probable rupture force ([1]; loading rates of 5000−7000 pN/s, ± SEM, total data 170 (Aβ40), 280 ([VPV]Aβ40), listed as [VPV]Αβ40) [pN] | most probable rupture force ([1]; loading rate 6215 pN/s, probability density function fit) [pN] | most probable rupture force ([1]; loading rates of 5000−7000 pN/s, ± SEM, total data 170 (Aβ40), 280 ([VPV]Aβ40), listed as Αβ40) [pN] | rupture force alignment in the force versus contour length plot ([1]; scatter plot Fig. 3c, horizontal line, loading rates of 5000−7000 pN/s)
Aβ42: alloform of human amyloid β−protein with two additional C−terminal residues; cysteinyl−peptide | 66.2 ± 0.8 | 0.299 | 0.260 | 0.262 | 0.274 ± 0.013 |  |  |  |  |  |  |  |  |  |  |  |  |  | 
[VPV]Aβ42: Aβ42 with VPV substitutions (Gly33Val−Val36Pro−Gly38Val); cysteinyl−peptide | 67.9 ± 1.0 | 0.451 | 0.337 | 0.387 | 0.392 ± 0.034 | more than three times higher | 1.1 | 2.1 | 1.5 | 29.0 | 1.6 ± 0.3 | 0.63 ± 0.12 |  |  |  |  |  |  | 
[VPV]Aβ40: Aβ40 mutant with VPV substitutions (Gly33Val−Val36Pro−Gly38Val); cysteinyl−peptide |  | 0.361 | 0.293 | 0.262 | 0.305 ± 0.029 |  | 2.2 | 1.7 | 1.9 | 28.8 | 1.9 ± 0.1 | 0.53 | 25 | 83.6 | 79.3 ± 1.5 | 79.3 |  |  | 
Aβ40: alloform of human amyloid β−protein; cysteinyl−Aβ peptide, Cys residue placed at the N−terminus |  | 0.203 | 0.257 | 0.206 | 0.222 ± 0.018 |  | 9.4 | 4.7 | 12.9 | 27.3 | 9.0 ± 2.4 | 0.11 |  |  | 63.4 ± 3.2 |  | 57.0 | 63.4 | ~ 60 pN
